This data set is described as follows: Static surface tension of aqueous surfactant solutions (Kruss K-12 tensiometer, Du Nouy ring method). Format: physicochemical. The following applies: 1000 ppm in water, 20° C. The protocol:
The solution from was diluted with water to a concentration of 1000 ppm.
The procedure of Preparation 1 was followed except using 16.3 grams of C3F7OCHFCF2COOCH3 instead of the CF3O(CF2)3OCHFCF2COOCH3 to prepare a solution of C3F7OCHFCF2COOK. This solution was diluted with water to a concentration of 1000 ppm.
Static surface tensions were measured on the solutions of Preparations 1 to 6 using a Kruss K-12 tensiometer (obtained from Kruss GmbH, Hamburg, Germany) using the Du Nouy ring method at 20° C.

`O=C([O-])C(F)(F)C(F)(F)C(F)(F)C(F)(F)C(F)(F)F.[K+]` [potassium perfluorohexanoate]: the “Surface Tension” value was found to be 58.5 mN/m.

The values above are taken from US8338517B2, “Aqueous compositions of fluorinated surfactants and methods of using the same” (3M Innovative Properties Company, priority 2007, dated 2012).
